The test can be described thus: zone of inhibition activity. The format is cell-based. The following applies: compared with zn bacitracin.

Consider Cu-zn bacitrate, for which the “zone of inhibition activity” value is “greater zone of inhibition activity than zn bacitracin”.

Source of the values: patent US20140248221A1, “COMPOSITIONS FOR ORAL USE AND METHODS FOR TREATING THE ORAL MUCOSA, LIPS, AND PERIORAL REGIONS” (JR CHEM, LLC, priority 2011, published 2014).
